The values below come from US6444617B1, “Fused-heterocycle dicarboxylic acid diamide derivatives or salts thereof, herbicide and usage thereof” (Nihon Nohyaku Co., Ltd., priority 1998, dated 2002).

Holding throughout (format): in vivo
In series [1] the test system is bulrush (Scirpus juncoides Roxb.). The series can be described thus: Test Example 1: herbicidal effect on paddy field weeds before emergence. To be noted: Dosage 5 kg/ha. The essentials:
(§1)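 Grading reflects percent control relative to untreated plots, evaluated three weeks post-application. Treatment was a soil application of compound solution, predetermined dose, made to paddy-state pots before weed seeds germinated.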

The subject of series [2] is barnyard grass (Echinochloa crus-galli Beauv.). Described as above. As to conditions: Dosage 5 kg/ha. In short, it runs like this:
as §1

In another series the test system is wheat. The series can be described thus: Test Example 4: phytotoxicity to upland crop plants, treatment after emergence. To be noted: dosage 5 kg/ha, sprayed after emergence, judged 14 days after treatment. The essentials:
(§2)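 Seeds sown in soil and covered. Plants raised to specified leaf stages. Agent with test compound at a prescribed concentration sprayed. Herbicidal effect and crop damage scored after 14 days as weed-killing rate.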

Another series concerns soybean plant. The series is described as above. As to conditions: dosage 5 kg/ha, sprayed after emergence, judged 14 days after treatment. In short, it runs like this:
as §2

Series [3] relates to monochoria (Monochoria vaginalis Presl). The series can be described thus: Test Example 2: herbicidal effect on paddy field weeds after emergence. As to conditions: Dosage 5 kg/ha; one-leaved stage; 21 days after treatment. In short, it runs like this:
(§3)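 Weeds in flooded paddy-soil pots were grown to the one-leaved stage, then the soil was treated with the compound solution at a set dosage.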

For series [4], the system named is bulrush (Scirpus juncoides Roxb.). The description is as above. As to conditions: Dosage 5 kg/ha; one-leaved stage; 21 days after treatment. In short, it runs like this:
as §3

Series [5] deals with barnyard grass (Echinochloa crus-galli Beauv.). The description is as above. As to conditions: Dosage 5 kg/ha; one-leaved stage; 21 days after treatment. In short, it runs like this: as §3
The subject of a further series is wheat (Wh). The series can be described thus: Test Example 3: phytotoxicity to upland crop plants, treatment before emergence. As to conditions: dosage 5 kg/ha. In short, it runs like this: (§4)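 Phytotoxicity scores for soybean and wheat were assigned by a set criterion 14 days after a pre-emergence spray of a liquid preparation containing the test compound at a prescribed concentration.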

In a further series the test system is soybean plant (So). Described as above. As to conditions: dosage 5 kg/ha. The essentials:
as §4

The test system of series [6] is velvetleaf (Abutilon theophtasti L.), At. The series can be described thus: Test Example 3: herbicidal effect on upland weeds before emergence. As to conditions: dosage 5 kg/ha. The essentials: (§5)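 Test compound, formulated as a liquid at a fixed concentration, is sprayed before weed emergence. Two weeks later, kill rate is derived and herbicidal activity is rated.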

Series [7] has as its system barnyard grass (Echinochloa crus-galli Beauv.), Ec. Described as above. To be noted: dosage 5 kg/ha. The essentials:
as §5

Series [8] has as its system cleavers (Galium aparine L.), Ga. The description is as above. To be noted: dosage 5 kg/ha. In short, it runs like this:
as §5

The test system of series [9] is bird's eye speedwell (Veronica persica Poir.), Vp. The description is as above. As to conditions: dosage 5 kg/ha. The essentials: as §5
For series [10], the system named is cocklebur (Xanthium strumarium L.), Xs. The description is as above. As to conditions: dosage 5 kg/ha. The essentials:
as §5

In series [11] the test system is forxtail grass (Alopecurus aequalis var. amurensis Ohwi), Am. The series is described as above. To be noted: foxtail grass, dosage 5 kg/ha. The essentials:
as §5

Series [12] relates to velvetleaf (Abutilon theophtasti L.), At. Briefly: Test Example 4: herbicidal effect on upland weeds after emergence. As to conditions: dosage 5 kg/ha; sprayed after emergence; judged 14 days after treatment. In short, it runs like this:
as §2

For series [13], the system named is barnyard grass (Echinochloa crus-galli Beauv.), Ec. The description is as above. As to conditions: dosage 5 kg/ha; sprayed after emergence; judged 14 days after treatment. In short, it runs like this: as §2
Series [14] has as its system cleavers (Galium aparine L.), Ga. The description is as above. To be noted: dosage 5 kg/ha; sprayed after emergence; judged 14 days after treatment. In short, it runs like this: as §2
Series [15] relates to bird's eye speedwell (Veronica persica Poir.), Vp. Described as above. To be noted: dosage 5 kg/ha; sprayed after emergence; judged 14 days after treatment. The essentials: as §2
Series [16] deals with cocklebur (Xanthium strumarium L.), Xs. The series is described as above. To be noted: dosage 5 kg/ha; sprayed after emergence; judged 14 days after treatment. In short, it runs like this:
as §2

For series [17], the system named is forxtail grass (Alopecurus aequalis var. amurensis Ohwi), Am. The description is as above. To be noted: dosage 5 kg/ha; sprayed after emergence; judged 14 days after treatment. The essentials:
as §2

For the compound `CCCNC(=O)c1nc2c(cnn2C)cc1C(=O)Nc1c(CC)ccc(Cl)c1CC` [compound 1088], in [1], the “Pre-emergence treatment Bulrush (herbicidal effect)” value (“Pre-emergence treatment Bulrush” for short) is 5 (Weed-killing rate is 100%.). For the same compound, the “Pre-emergence treatment Barnyard grass (herbicidal effect)” value (shortened to “Pre-emergence treatment Barnyard grass”) in series [2] is reported as 5 (Weed-killing rate is 100%.). Moreover, the “Phytotoxicity Wh” value with wheat and in the series on wheat (Wh) was 5 (Crop-killing rate is 100%.) each time. In addition, the “Phytotoxicity So” value in the series on soybean plant and in the series with soybean plant (So) was 5 (Crop-killing rate is 100%.) each time. For the same compound, in series [3], the “Post-emergence treatment Monochoria (herbicidal effect)” value (shortened to “Post-emergence treatment Monochoria”) is 5 (Weed-killing rate is 100%.). Further, the “Post-emergence treatment Bulrush (herbicidal effect)” value (“Post-emergence treatment Bulrush” below) in series [4] is listed as 5 (Weed-killing rate is 100%.). For the same compound, the “Post-emergence treatment Barnyard grass (herbicidal effect)” value (shortened to “Post-emergence treatment Barnyard grass”) in series [5] is given as 5 (Weed-killing rate is 100%.). The “Herbicidal effect At” value in series [6] and in series [12] was 5 (Weed-killing rate is 100%.) in each case. Also, the “Herbicidal effect Ec” value in series [7] and in series [13] was 5 (Weed-killing rate is 100%.) each time. For the same compound, the “Herbicidal effect Ga” value in [8] and in [14] was 5 (Weed-killing rate is 100%.) in each case. The “Herbicidal effect Vp” value in [9] and in [15] was 5 (Weed-killing rate is 100%.) throughout. Further, the “Herbicidal effect Xs” value in series [10] and in [16] was 5 (Weed-killing rate is 100%.) throughout. Besides, the “Herbicidal effect Am” value in series [11] and in series [17] was 5 (Weed-killing rate is 100%.) each time.
Turning to `CCCNC(=O)c1nc2c(cc1C(=O)Nc1c(CC)ccc(Cl)c1CC)c(C)nn2C` [compound 1112], the “Pre-emergence treatment Bulrush” value in series [1] is 5 (Weed-killing rate is 100%.). Also, the “Pre-emergence treatment Barnyard grass” value in [2] was 5 (Weed-killing rate is 100%.). Moreover, the “Phytotoxicity Wh” value with wheat and in the series with wheat (Wh) was 5 (Crop-killing rate is 100%.) in each case. Further, the “Phytotoxicity So” value with soybean plant and in the series with soybean plant (So) was 5 (Crop-killing rate is 100%.) in each case. Further, in [3], the “Post-emergence treatment Monochoria” value is given as 5 (Weed-killing rate is 100%.). Besides, in series [4], the “Post-emergence treatment Bulrush” value is 5 (Weed-killing rate is 100%.). Also, the “Post-emergence treatment Barnyard grass” value in [5] is reported as 5 (Weed-killing rate is 100%.). Further, the “Herbicidal effect At” value in series [6] and in series [12] was 5 (Weed-killing rate is 100%.) throughout. Also, the “Herbicidal effect Ec” value in series [7] and in series [13] was 5 (Weed-killing rate is 100%.) throughout. The “Herbicidal effect Ga” value in series [8] and in [14] was 5 (Weed-killing rate is 100%.) in each case. For the same compound, the “Herbicidal effect Vp” value in series [9] and in [15] was 5 (Weed-killing rate is 100%.) each time. Also, the “Herbicidal effect Xs” value in series [10] and in [16] was 5 (Weed-killing rate is 100%.) in each case. In addition, the “Herbicidal effect Am” value in [11] and in series [17] was 5 (Weed-killing rate is 100%.) in each case.
`CCCNC(=O)c1nc2nn(C)cc2cc1C(=O)Nc1c(CC)ccc(Cl)c1CC` [compound 1124]: the “Pre-emergence treatment Bulrush” value in series [1] is on record as 5 (Weed-killing rate is 100%.). The “Pre-emergence treatment Barnyard grass” value in series [2] was 5 (Weed-killing rate is 100%.). Further, the “Phytotoxicity Wh” value in the series with wheat and in the series with wheat (Wh) was 5 (Crop-killing rate is 100%.) throughout. For the same compound, the “Phytotoxicity So” value in the series on soybean plant and in the series with soybean plant (So) was 5 (Crop-killing rate is 100%.) each time. Also, in series [3], the “Post-emergence treatment Monochoria” value was 5 (Weed-killing rate is 100%.). In addition, the “Post-emergence treatment Bulrush” value in series [4] is 5 (Weed-killing rate is 100%.). Besides, the “Post-emergence treatment Barnyard grass” value in series [5] is listed as 5 (Weed-killing rate is 100%.). In addition, the “Herbicidal effect At” value in series [6] and in [12] was 5 (Weed-killing rate is 100%.) in each case. Also, the “Herbicidal effect Ec” value in series [7] and in series [13] was 5 (Weed-killing rate is 100%.) each time. In addition, the “Herbicidal effect Ga” value in series [8] and in [14] was 5 (Weed-killing rate is 100%.) in each case. The “Herbicidal effect Vp” value in series [9] and in series [15] was 5 (Weed-killing rate is 100%.) each time. The “Herbicidal effect Xs” value in series [10] and in series [16] was 5 (Weed-killing rate is 100%.) each time. Moreover, the “Herbicidal effect Am” value in series [11] and in [17] was 5 (Weed-killing rate is 100%.) each time.
Turning to `CCCNC(=O)c1nc2cnn(C)c2cc1C(=O)Nc1c(CC)ccc(Cl)c1CC` [compound 1173], the “Pre-emergence treatment Bulrush” value in series [1] is on record as 5 (Weed-killing rate is 100%.). In series [2], the “Pre-emergence treatment Barnyard grass” value was 5 (Weed-killing rate is 100%.). In addition, the “Phytotoxicity Wh” value in the series with wheat and in the series on wheat (Wh) was 5 (Crop-killing rate is 100%.) throughout. Besides, the “Phytotoxicity So” value with soybean plant and in the series on soybean plant (So) was 5 (Crop-killing rate is 100%.) each time. In [3], the “Post-emergence treatment Monochoria” value is given as 5 (Weed-killing rate is 100%.). Further, the “Post-emergence treatment Bulrush” value in [4] is on record as 5 (Weed-killing rate is 100%.). Moreover, the “Post-emergence treatment Barnyard grass” value in series [5] is on record as 5 (Weed-killing rate is 100%.). The “Herbicidal effect At” value in [6] and in series [12] was 5 (Weed-killing rate is 100%.) each time. Also, the “Herbicidal effect Ec” value in series [7] and in series [13] was 5 (Weed-killing rate is 100%.) throughout. Also, the “Herbicidal effect Ga” value in series [8] and in series [14] was 5 (Weed-killing rate is 100%.) throughout. The “Herbicidal effect Vp” value in series [9] and in [15] was 5 (Weed-killing rate is 100%.) in each case. In addition, the “Herbicidal effect Xs” value in series [10] and in series [16] was 5 (Weed-killing rate is 100%.) each time. The “Herbicidal effect Am” value in series [11] and in series [17] was 5 (Weed-killing rate is 100%.) each time.
